Active and inactive are the calls of the source. No cut-off for these calls is given here.
Tests used:
[1] = Antiproliferative activity against human L02 cells assessed as inhibition of cell proliferation incubated for 72 hrs by MTT assay; format: toxicity, cell-based
[2] = GSH reactivity in potassium phosphate buffer at pH 7.4 assessed as half life at 1 uM measured at 2 to 1440 mins by LC-MS/MS analysis; format: physicochemical; conditions: potassium phosphate buffer with GSH, time 2-1440 min
[3] = biological target: Tyrosine-protein kinase ABL2 (Homo sapiens) (UniProt P42684); assay: Inhibition of ABL2 (unknown origin) at 1 uM relative to control
Tyrosine-protein kinase ABL2 (Homo sapiens), sequence (P42684 whole entry): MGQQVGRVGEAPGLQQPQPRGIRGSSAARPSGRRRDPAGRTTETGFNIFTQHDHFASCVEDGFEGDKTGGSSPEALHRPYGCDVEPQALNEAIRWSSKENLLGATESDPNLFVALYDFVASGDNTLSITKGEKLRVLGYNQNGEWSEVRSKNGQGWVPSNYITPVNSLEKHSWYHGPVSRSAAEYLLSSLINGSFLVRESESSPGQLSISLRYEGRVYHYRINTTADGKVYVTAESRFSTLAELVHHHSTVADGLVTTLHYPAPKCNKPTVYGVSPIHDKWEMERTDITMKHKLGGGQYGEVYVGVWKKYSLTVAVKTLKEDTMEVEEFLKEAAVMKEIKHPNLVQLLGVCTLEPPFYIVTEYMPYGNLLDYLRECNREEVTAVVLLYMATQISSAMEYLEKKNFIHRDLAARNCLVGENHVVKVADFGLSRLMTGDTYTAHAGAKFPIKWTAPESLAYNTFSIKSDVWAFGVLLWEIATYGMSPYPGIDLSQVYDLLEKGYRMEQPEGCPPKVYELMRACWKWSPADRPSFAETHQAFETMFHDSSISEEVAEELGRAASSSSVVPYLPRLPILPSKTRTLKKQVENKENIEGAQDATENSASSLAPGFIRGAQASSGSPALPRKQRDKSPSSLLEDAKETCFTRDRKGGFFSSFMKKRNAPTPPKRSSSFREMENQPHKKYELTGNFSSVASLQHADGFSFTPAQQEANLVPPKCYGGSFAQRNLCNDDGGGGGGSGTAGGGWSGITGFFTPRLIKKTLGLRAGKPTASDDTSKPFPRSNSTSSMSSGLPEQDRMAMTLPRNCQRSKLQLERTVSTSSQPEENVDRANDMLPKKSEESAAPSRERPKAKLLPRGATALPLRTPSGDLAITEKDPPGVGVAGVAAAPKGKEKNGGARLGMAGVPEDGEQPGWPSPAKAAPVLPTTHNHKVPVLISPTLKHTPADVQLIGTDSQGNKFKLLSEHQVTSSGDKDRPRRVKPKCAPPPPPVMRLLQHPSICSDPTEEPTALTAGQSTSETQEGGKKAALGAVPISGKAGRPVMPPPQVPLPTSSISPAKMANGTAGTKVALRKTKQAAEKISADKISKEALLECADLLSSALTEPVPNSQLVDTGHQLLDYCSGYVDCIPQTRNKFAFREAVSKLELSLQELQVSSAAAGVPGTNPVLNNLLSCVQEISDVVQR

Huh-7 [4] = assay: Induction of apoptosis in human Huh-7 cells assessed as viable cells at 0.5 uM incubated for 48 hrs by annexin V-FITC/propidium iodide staining based flow cytometry analysis (reference value: 84.91%); format: functional; conditions: read-out: Activity
Huh-7 [5] = assay: Induction of apoptosis in human Huh-7 cells assessed as early apoptotic cells at 0.5 uM incubated for 48 hrs by annexin V-FITC/propidium iodide staining based flow cytometry analysis (reference value: 4.59%); format: functional
Huh-7 [6] = assay: Induction of apoptosis in human Huh-7 cells assessed as late apoptotic cells at 0.5 uM incubated for 48 hrs by annexin V-FITC/propidium iodide staining based flow cytometry analysis (reference value: 5.20%); format: functional
Huh-7 [7] = assay: Induction of apoptosis in human Huh-7 cells assessed as necrotic cells at 0.5 uM incubated for 48 hrs by annexin V-FITC/propidium iodide staining based flow cytometry analysis (reference value: 5.20%); format: functional
Huh-7 [8] = assay: Induction of apoptosis in human Huh-7 cells assessed as necrotic cells at 1 uM incubated for 48 hrs by annexin V-FITC/propidium iodide staining based flow cytometry analysis (reference value: 5.20%); format: functional
Huh-7 [9] = assay: Induction of apoptosis in human Huh-7 cells assessed as viable cells at 0.1 uM incubated for 48 hrs by annexin V-FITC/propidium iodide staining based flow cytometry analysis (reference value: 84.91%); format: functional; conditions: read-out: Activity
Huh-7 [10] = assay: Induction of apoptosis in human Huh-7 cells assessed as late apoptotic cells at 0.1 uM incubated for 48 hrs by annexin V-FITC/propidium iodide staining based flow cytometry analysis (reference value: 5.20%); format: functional
Huh-7 [11] = assay: Induction of apoptosis in human Huh-7 cells assessed as necrotic cells at 0.1 uM incubated for 48 hrs by annexin V-FITC/propidium iodide staining based flow cytometry analysis (reference value: 5.20%); format: functional
Hep 3B2 [12] = assay: Induction of apoptosis in human Hep3B cells assessed as viable cells at 0.5 uM incubated for 48 hrs by annexin V-FITC/propidium iodide staining based flow cytometry analysis (reference value: 84.91%); format: functional; conditions: read-out: Activity
Hep 3B2 [13] = assay: Induction of apoptosis in human Hep3B cells assessed as early apoptotic cells at 0.5 uM incubated for 48 hrs by annexin V-FITC/propidium iodide staining based flow cytometry analysis (reference value: 4.69%); format: functional
Hep 3B2 [14] = assay: Induction of apoptosis in human Hep3B cells assessed as necrotic cells at 0.5 uM incubated for 48 hrs by annexin V-FITC/propidium iodide staining based flow cytometry analysis (reference value: 5.20%); format: functional
Hep 3B2 [15] = assay: Induction of apoptosis in human Hep3B cells assessed as early apoptotic cells at 1 uM incubated for 48 hrs by annexin V-FITC/propidium iodide staining based flow cytometry analysis (reference value: 4.69%); format: functional
Hep 3B2 [16] = assay: Induction of apoptosis in human Hep3B cells assessed as late apoptotic cells at 1 uM incubated for 48 hrs by annexin V-FITC/propidium iodide staining based flow cytometry analysis (reference value: 5.20%); format: functional
Hep 3B2 [17] = assay: Induction of apoptosis in human Hep3B cells assessed as early apoptotic cells at 0.25 uM incubated for 48 hrs by annexin V-FITC/propidium iodide staining based flow cytometry analysis (reference value: 4.69%); format: functional
Hep3B [18] = assay: Inhibition of MAPK phosphorylation in human Hep3B cells incubated for 48 hrs by Western blot analysis; format: cell-based; conditions: dose 0.25-1 µM
Hep3B [19] = assay: Inhibition of MAPK phosphorylation in human Hep3B cells at 0.4 uM incubated for 48 hrs by Western blot analysis; format: cell-based
Huh-7 [20] = assay: Downregulation of FAK level in human Huh-7 cells at 0.25 to 1 uM incubated for 48 hrs by Western blot analysis; format: functional, cell-based; conditions: dose 0.25-1 µM
Huh-7 [21] = assay: Antiproliferative activity against human Huh-7 cells assessed as cell viability at […] pre-incubated with compound for 12 hrs followed by compound washout and measured after 4 days; format: functional, cell-based; conditions: dose 1.6 µM
[22] = Cmax in BALB/c male mouse at 10 mg/kg, po measured upto 24 hrs by LC-MS/MS analysis; format: ADME, organism-based; conditions: in vivo
[23] = Clearance in BALB/c male mouse at 1 mg/kg, iv measured upto 24 hrs by LC-MS/MS analysis; format: ADME, organism-based; conditions: in vivo
[24] = MRT (0 to t) in BALB/c male mouse at 1 mg/kg, iv measured upto 24 hrs by LC-MS/MS analysis; format: ADME, organism-based; conditions: in vivo
[25] = MRT (0 to t) in BALB/c male mouse at 10 mg/kg, po measured upto 24 hrs by LC-MS/MS analysis; format: ADME, organism-based; conditions: in vivo
[26] = Volume of distribution at steady state in BALB/c male mouse at 1 mg/kg, iv measured upto 24 hrs by LC-MS/MS analysis; format: ADME, organism-based; conditions: in vivo, read-out: Vdss
[27] = Half life in BALB/c male mouse at 1 mg/kg, iv measured upto 24 hrs by LC-MS/MS analysis; format: ADME, organism-based; conditions: in vivo
[28] = Tmax in BALB/c male mouse at 10 mg/kg, po measured upto 24 hrs by LC-MS/MS analysis; format: ADME, organism-based; conditions: in vivo
Huh-7 [29] = assay: Antitumor activity against human Huh-7 cells xenografted in nude mouse assessed as tumor growth inhibition at 12.5 mg/kg, ip administered for 15 days; format: functional; conditions: Huh-7, 360 h, time 15 day, read-out: TGI
Huh-7 [30] = assay: Antitumor activity against human Huh-7 cells xenografted in nude mouse assessed as tumor growth inhibition at 25 mg/kg, ip administered for 15 days; format: functional; conditions: Huh-7, 360 h, time 15 day, read-out: TGI
Huh-7 [31] = assay: Antitumor activity against human Huh-7 cells xenografted in nude mouse assessed as tumor growth inhibition at 50 mg/kg, ip administered for 15 days; format: functional; conditions: Huh-7, 360 h, time 15 day, read-out: TGI
[32] = Toxicity in male nude mouse implanted with human Huh-7 cells assessed as body weight loss at 12.5 to 50 mg/kg, ip administered for 15 days; format: organism-based; conditions: in vivo, 360 h, dose 12.5-50 mg/kg, time 15 day
[33] = Toxicity in male nude mouse implanted with human Huh-7 cells assessed as kidney damage at 12.5 to 50 mg/kg, ip administered for 15 days; format: organism-based; conditions: in vivo, 360 h, dose 12.5-50 mg/kg, time 15 day
[34] = Toxicity in male nude mouse implanted with human Huh-7 cells assessed as heart damage at 12.5 to 50 mg/kg, ip administered for 15 days; format: organism-based; conditions: in vivo, 360 h, dose 12.5-50 mg/kg, time 15 day
Hep 3B2 [35] = assay: cells; conditions: Homo sapiens, Hep3B, 72 h
Description: Antiproliferative activity against human Hep3B cells assessed as inhibition of cell proliferation incubated for 72 hrs by MTT assay

Huh-7 [36] = assay: cells; conditions: Homo sapiens, Huh-7, 72 h
Description: Antiproliferative activity against human Huh-7 cells assessed as inhibition of cell proliferation incubated for 72 hrs by MTT assay

MDA-MB-231 = assay: cells; conditions: Homo sapiens, MDA-MB-231, 72 h
Description: Antiproliferative activity against human MDA-MB-231 cells assessed as inhibition of cell proliferation incubated for 72 hrs by MTT assay

C=CC(=O)Nc1cccc(C)c1Nc1ncc(C#Cc2cccc(C(=O)Nc3ccc(CN4CCN(C)CC4)c(C(F)(F)F)c3)c2)cn1
IC50 at 72 h [1]: > 10000 nM | half-life at 1 µM [2]: 1.35 h | inhibition [3]: < 70% | viability at 0.5 µM (Huh-7 [4]): 75.3% | Activity (Huh-7 [5]): 5.07% | Activity (Huh-7 [6]): 11.2% | Activity (Huh-7 [7]): 8.41% | Activity (Huh-7 [8]): 9.67% | viability at 0.1 µM (Huh-7 [9]): 88.8% | Activity (Huh-7 [10]): 5.12% | Activity (Huh-7 [11]): 2.37% | viability at 0.5 µM (Hep 3B2 [12]): 68.9% | Activity (Hep 3B2 [13]): 5.73% | Activity (Hep 3B2 [14]): 6.93% | Activity (Hep 3B2 [15]): 9.61% | Activity (Hep 3B2 [16]): 22.07% | Activity (Hep 3B2 [17]): 4.38% | inhibition (Hep3B [18]): Dose-dependent-effect | inhibition (Hep3B [19]): Active | Activity (Huh-7 [20]): Active | Activity (Huh-7 [21]): Active | Cmax [22]: 91.3 ng/mL | clearance [23]: 67.9 mL/min/kg | MRT last at 24 h [24]: 0.77 h | MRT last at 24 h [25]: 2.65 h | Vd [26]: 3.52 L/kg | half-life [27]: 0.79 h | Tmax [28]: 1 h | inhibition in vivo at 12.5 mg/kg (Huh-7 [29]): 34.9% | inhibition in vivo at 25 mg/kg (Huh-7 [30]): 50.3% | inhibition in vivo at 50 mg/kg (Huh-7 [31]): 69.8% | Activity [32]: Non-toxic | Activity [33]: Non-toxic | Activity [34]: Non-toxic | IC50 (Hep 3B2 [35]): 70 nM | IC50 (Huh-7 [36]): 150 nM | IC50 (MDA-MB-231): 5600 nM

Reference: ChEMBL document CHEMBL6121004, “Design, synthesis, and biological evaluation of Ponatinib-based N-Phenylpyrimidine-2-amine derivatives as novel fibroblast growth factor receptor 4 (FGFR4) selective inhibitors” (Eur J Med Chem, 2025)
